{"source": "patent US20060120971A1", "about": "“Agents and methods for administration to the central nervous system” (SIGNUM PHARMACEUTICALS, INC., priority 2004, published 2006)", "origin": "cited, not measured here", "target": "T1, carnitine palmitoyltransferase-1 (CPT1) (Rattus norvegicus, UniProt P32198)", "T1 construct": "decrease levels of CPT1 activity and increase the levels of LC-CoAs in the hypothalamus of healthy rats; host or cells: endogenous enzyme in brain/hypothalamus of conscious Sprague-Dawley rats (in vivo, ICV infusion)", "T1 sequence (P32198 1-773)": "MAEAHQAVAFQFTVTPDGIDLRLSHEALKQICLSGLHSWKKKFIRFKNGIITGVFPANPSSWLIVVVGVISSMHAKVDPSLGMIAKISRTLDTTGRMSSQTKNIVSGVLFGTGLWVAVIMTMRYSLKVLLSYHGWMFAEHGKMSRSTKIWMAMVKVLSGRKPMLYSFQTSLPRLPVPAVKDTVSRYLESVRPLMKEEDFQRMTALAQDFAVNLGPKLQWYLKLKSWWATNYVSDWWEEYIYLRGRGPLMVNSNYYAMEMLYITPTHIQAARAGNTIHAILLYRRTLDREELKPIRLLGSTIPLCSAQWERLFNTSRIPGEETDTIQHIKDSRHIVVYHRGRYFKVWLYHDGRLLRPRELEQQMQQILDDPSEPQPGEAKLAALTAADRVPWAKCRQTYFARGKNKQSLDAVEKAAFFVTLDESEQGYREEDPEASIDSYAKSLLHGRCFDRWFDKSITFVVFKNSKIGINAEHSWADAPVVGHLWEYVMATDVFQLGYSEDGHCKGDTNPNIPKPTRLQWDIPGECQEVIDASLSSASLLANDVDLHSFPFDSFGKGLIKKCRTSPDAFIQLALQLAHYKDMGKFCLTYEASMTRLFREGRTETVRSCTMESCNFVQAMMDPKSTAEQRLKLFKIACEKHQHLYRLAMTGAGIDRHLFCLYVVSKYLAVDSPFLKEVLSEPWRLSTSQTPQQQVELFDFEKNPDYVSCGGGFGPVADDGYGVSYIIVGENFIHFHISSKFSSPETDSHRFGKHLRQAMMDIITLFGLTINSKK", "key": {"[1]": {"conditions": "healthy conscious Sprague-Dawley rats, continuous ICV infusion into third cerebral ventricle"}}, "data": [{"smiles": "CCCCCCCCCCCCCCNC(=O)N[C@H](CC(=O)[O-])C[N+](C)(C)C", "note": "[ST1326, R-4-trimethylammonium-3-(tetradecylcarbamoyl)-aminobutyrate]", "values": [{"measurement": "CPT1 activity", "setting": "brain of healthy rats, ICV infusion", "result": "effectively decreasing"}, {"measurement": "endogenous glucose production", "setting": "[1]", "result": "reduced"}, {"measurement": "food intake", "setting": "[1]", "result": "diminished"}, {"measurement": "hypothalamic concentrations of LC-CoA", "setting": "hypothalamus of healthy rats, ICV infusion", "result": "substantially increasing"}]}]}
